The values below come from patent publication US20210369623A1, “COMPOSITION THAT FORMS LIQUID CRYSTALLINE PARTICLES” (Zeenar Enterprises Pty Ltd, priority 2018, published 2021).

The conditions of data set [1]: cited from earlier work.
The nature of data set [2]: In vitro release/permeation through porcine buccal mucosa in modified Ussing chamber (rosuvastatin, oxycodone, atorvastatin). The note with it: not yet tested.
Data set [3] is described as follows: SAXS of mixtures of GMO and excipient/active ingredient immersed in PBS (liquid crystal phase and lattice size). Type of data set: physicochemical. The arrangement: lamella phase lattice size: unit not given here. The note with it: for Threshold (minimum amount of ingredient required to increase the water channel size): % w/w of ingredient in GMO; for Phase structure: PBS buffer pH 6.8, ~22° C.; for Concentration at which V2(Pn3m) lattice size increased / Concentration of transformation/transition in liquid crystalline structure: concentration in GMO; for Concentration of transformation/transition in liquid crystalline structure: change to structure with larger water channels (e.g. Im3m). The method, then: The samples were then mixed via a roller mixer at ˜10 RPM at 40° C. for at least 3 days.
One week prior to SAXS experiment, 100 mg samples were loaded into a transparent polystyrene 96 well plate (Nunc™) and immersed in 200 μL of PBS buffer (pH 6.8). The samples were stored away from light at ambient temperature, to allow the samples to reach equilibrium.
The SAXS/WAXS beamline at Australian Synchrotron, Melbourne, Australia was used to determine the liquid crystalline nanostructure in the samples.
A custom-designed plate holder was used to mount the samples plate directly onto the SAXS/WAXS beamline. Scans were automated using a pre-loaded set of position variables based on the well positions within the plate, the exposure time was 5 sec.
Data were obtained at ambient temperature (˜22° C.). […] The 2-D diffraction images were recorded on a Pilatus 1M detector and radially integrated using the in-house software “ScatterBrain”.

Setting [4] is: Concentration in GMO 1%, first value of the cell (first phase listed).
Setting [5] is: Concentration in GMO 5%, first value of the cell (first phase listed).
The mark [6] stands for this setting: Concentration in GMO 10%, first value of the cell (first phase listed).
Setting [7] is: Concentration in GMO 15%, first value of the cell (first phase listed).
Where [8] appears, read: Concentration in GMO 20%, first value of the cell (first phase listed).
[9] abbreviates: Concentration in GMO 10%, second value of the cell (second phase).
Where [10] appears, read: Concentration in GMO 15%, second value of the cell (second phase).

By logP is commonly meant the decadic logarithm of the partition coefficient of the neutral form, usually between octanol and water. With `CNCC(O)c1ccc(O)c(O)c1` (stereo not drawn) [Adrenaline], the logP in data set [1] is on record as −0.5 to −1.4. In addition, the “passage through the porcine oral mucosa in a Ussing chamber” value in data set [2] is recorded as “expected to pass through the porcine oral mucosa”.

In the case of `CC(C)c1c(C(=O)Nc2ccccc2)c(-c2ccccc2)c(-c2ccc(F)cc2)n1CC[C@@H](O)C[C@@H](O)CC(=O)O` [Atorvastatin], the “Threshold (minimum amount of ingredient required to increase the water channel size)” value in data set [3] was 8-10%. Besides, the Phase structure entry in data set [3] (Concentration in GMO 1%), in data set [3] (Concentration in GMO 5%), in data set [3] (Concentration in GMO 10%), in data set [3] (Concentration in GMO 15%), in data set [3] (Concentration in GMO 20%) and in data set [3] (Concentration in GMO 25%) was “V2(Pn3m)” throughout. The Phase structure entry in data set [3] (Concentration in GMO 35%) is given as “V2(Pn3m)”. The Lattice size in data set [3] (setting [4]) came to 93.1 Å; in data set [3] (setting [5]), 99.2 Å; in data set [3] (setting [6]), 105 Å; in data set [3] (setting [7]), 101 Å; in data set [3] (setting [8]), 103 Å; in data set [3] (Concentration in GMO 25%, first value of the cell (first phase listed)), 102 Å. For the same compound, the Lattice size in data set [3] (Concentration in GMO 35%, first value of the cell (first phase listed)) is 105 Å. The “Concentration at which V2(Pn3m) lattice size increased” value in data set [3] was 10-35%.

On to `CC(C)c1nc(N(C)S(C)(=O)=O)nc(-c2ccc(F)cc2)c1/C=C/[C@@H](O)C[C@@H](O)CC(=O)O` [Rosuvastatin], for which the logP in data set [1] is 1.92. Besides, in data set [3], the “Threshold (minimum amount of ingredient required to increase the water channel size)” value is reported as “A threshold of 3-5% or about 5%. Transformation in structure”. Also, the Phase structure result is “V2(Pn3m)” in data set [3] (Concentration in GMO 1%), “V2(Pn3m)” in data set [3] (Concentration in GMO 5%), “V2(Pn3m)” in data set [3] (Concentration in GMO 10%) and “V2(Pn3m) + V2(Im3m)” in data set [3] (Concentration in GMO 15%). In addition, the Lattice size in data set [3] (setting [4]) came to 84.2 Å; in data set [3] (setting [5]) it was 109 Å; in data set [3] (setting [6]), 109 Å; in data set [3] (setting [9]), 131 Å; in data set [3] (setting [7]), 122 Å; in data set [3] (setting [10]) it was 148 Å. Also, the “Concentration at which V2(Pn3m) lattice size increased” value in data set [3] was “Rosuvastatin - V2(Pn3m) lattice size increased at 5-15%”.

`CCCCCCCCCCCCOS(=O)(=O)[O-].[Na+]` [SLS, sodium lauryl sulphate]: the “Threshold (minimum amount of ingredient required to increase the water channel size)” value in data set [3] was 3-5% or about 5%. SLS was also tested in SBT137 and shown to increase. The Phase structure entry in data set [3] (Concentration in GMO 1%), in data set [3] (Concentration in GMO 5%) and in data set [3] (Concentration in GMO 10%) was “V2(Pn3m)” each time. Further, the Lattice size in data set [3] (setting [4]) was determined as 95.4 Å; in data set [3] (setting [5]), 116 Å; in data set [3] (setting [6]), 133 Å. For the same compound, the “Concentration of transformation/transition in liquid crystalline structure” value in data set [3] is listed as “with large water channels. Transition at about 50%”.

As for `O=C1NS(=O)(=O)c2ccccc21.[Na]` [Saccharin sodium], the “Threshold (minimum amount of ingredient required to increase the water channel size)” value in data set [3] is 3-5%. Besides, the results for the Phase structure entry in data set [3] (Concentration in GMO 1%), in data set [3] (Concentration in GMO 5%) and in data set [3] (Concentration in GMO 10%) were “V2(Pn3m)”, “V2(Pn3m)” and “V2(Pn3m) + others”, respectively. Also, the Lattice size in data set [3] (setting [4]) was determined as 95.4 Å; in data set [3] (setting [5]), 107 Å; in data set [3] (setting [6]), 120 Å. Further, the “Concentration at which V2(Pn3m) lattice size increased” value in data set [3] is 5-10%.

Turning to `O=S(=O)([O-])NC1CCCCC1.[Na+]` [Sodium cyclamate], in data set [3], the “Threshold (minimum amount of ingredient required to increase the water channel size)” value is given as 3-5%. For the same compound, the Phase structure entry in data set [3] (Concentration in GMO 1%) is recorded as “V2(Pn3m)”; in data set [3] (Concentration in GMO 5%) it was “V2(Pn3m)”; in data set [3] (Concentration in GMO 10%) it was “V2(Pn3m) + other”. Moreover, the figures for the Lattice size in data set [3] (setting [4]), in data set [3] (setting [5]) and in data set [3] (setting [6]) were 93.1 Å, 103 Å and 113 Å, respectively. Also, the “Concentration at which V2(Pn3m) lattice size increased” value in data set [3] is listed as 5-10%.

For the compound `OC[C@@H](O)[C@@H](O)[C@H](O)[C@@H](O)CO` [Sorbitol], the V2(Pn3m) lattice size in data set [3] (ingredient 1 to 50% in GMO) fell in the range of 83 to 92 Å. For the same compound, in data set [3] (ingredient at 1% in GMO, blended with V2(Pn3m)), the “V2(Ia3d) lattice size” value is on record as “about 138 nm”. Besides, in data set [3] (tablet excipient mixed with GMO), the “impact on the GMO cubic structure formed” value was “minimal impact”.

In the case of `CCCCCCCC/C=C\CCCCCCCC(=O)OCCOCC(OCCO)C1OCC(OCCO)C1OCCO` (stereo not drawn) [Tween 80], the “Threshold (minimum amount of ingredient required to increase the water channel size)” value in data set [3] is “size from an ODT. A threshold of 8-10% or about 10%”. For the same compound, the Phase structure result in data set [3] (Concentration in GMO 1%) is reported as “V2(Pn3m)”; in data set [3] (Concentration in GMO 5%) it was “V2(Pn3m)”; in data set [3] (Concentration in GMO 10%) it was “V2(Pn3m)”; in data set [3] (Concentration in GMO 20%), “V2(Pn3m) + V2(Im3m)”. For the same compound, the Lattice size in data set [3] (setting [4]) was 91.9 Å; in data set [3] (setting [5]) it was 97.9 Å; in data set [3] (setting [6]) it was 106 Å; in data set [3] (setting [9]), 139 Å; in data set [3] (setting [8]), 138 Å; in data set [3] (Concentration in GMO 20%, second value of the cell (second phase)), 172 Å. Besides, the “Concentration at which V2(Pn3m) lattice size increased” value in data set [3] was “Tween 80 - V2(Pn3m) lattice size increased at 10-20%”. In addition, the “Concentration of transformation/transition in liquid crystalline structure” value in data set [3] is on record as “Transformation in structure by about 20%”.

Ibuprofen lysine: the “Threshold (minimum amount of ingredient required to increase the water channel size)” value in data set [3] is 3-5%. The Phase structure entry is given as “V2(Pn3m)” in data set [3] (Concentration in GMO 1%), “V2(Pn3m)” in data set [3] (Concentration in GMO 5%), “V2(Pn3m) + V2(Ia3d)” in data set [3] (Concentration in GMO 10%) and “Lα + V2(Ia3d)” in data set [3] (Concentration in GMO 15%). Further, the Lattice size in data set [3] (setting [4]) stood at 88.9 Å; in data set [3] (setting [5]), 105 Å; in data set [3] (setting [6]) it was 131 Å; in data set [3] (setting [9]), 189 Å; in data set [3] (setting [7]), 80.7 Å; in data set [3] (setting [10]) it was 198 Å. For the same compound, the “Concentration at which V2(Pn3m) lattice size increased” value in data set [3] is listed as 5-10%. Besides, the “Concentration of transformation/transition in liquid crystalline structure” value in data set [3] is “Transformation in structure by about 10%”.

For Magnesium stearate, the V2(Pn3m) lattice size in data set [3] (ingredient 1-20% in GMO) fell in the range of 93 to 95 Å. Further, the “lamella phase lattice size” value in data set [3] (ingredient at 5-30% in GMO) was 50. Besides, in data set [3] (ingredient at 30% in GMO), the H2 lattice size is 62 nm.
